According to patent publication US8431536B2, “Target for breast cancer therapy and/or diagnosis” (The University of Queensland, priority 2007, dated 2013):

Test system: MCF-7 breast cancer cells
Experiment: MTS proliferation/viability assay in MCF-7 breast cancer cells
Assay type: cell-based
Settings: 50 μM, treated on plating in 10% foetal bovine serum, MTS 72 hrs after plating, p<0.05 vs methanol control (FIG. 8)
Procedure: FIG. 6 The effect of siRNA to CRACM1 (96 hrs) on the viability of MCF-7 cells, as measured by an MTS assay for cellular proliferation. Normalized MTS absorbance (proliferation/viability) of the mean of 3 independent experiments in MCF-7 breast cancer cells (±SEM). For each experiment absorbance was assessed in quadruplicate. Experiment was performed in 1% foetal bovine serum (p<0.05).
FIG. 8 MTS assay of MCF-7 cells treated with 50 μM 2-APB. * p<0.05 compared with respective methanol control. Error bars=SD. Cells were treated with 2-APB on plating in 10% foetal bovine serum. MTS assay was performed 72 hrs after plating.

Structure (SMILES): NCCOB(c1ccccc1)c1ccccc1 [2-APB, 2-aminoethoxydiphenyl borate]
- proliferation/viability of MCF-7 cells (MTS assay): inhibits the proliferation/viability of MCF-7 breast
